In the Kinase Knowledgebase extract (Sharma et al. 2016):

Target: PIK3CA (human) (UniProt P42336)
Experiment: Assessment of PIK3CA Kinase Activity

PIK3CA (human), sequence (P42336 whole entry, looked up): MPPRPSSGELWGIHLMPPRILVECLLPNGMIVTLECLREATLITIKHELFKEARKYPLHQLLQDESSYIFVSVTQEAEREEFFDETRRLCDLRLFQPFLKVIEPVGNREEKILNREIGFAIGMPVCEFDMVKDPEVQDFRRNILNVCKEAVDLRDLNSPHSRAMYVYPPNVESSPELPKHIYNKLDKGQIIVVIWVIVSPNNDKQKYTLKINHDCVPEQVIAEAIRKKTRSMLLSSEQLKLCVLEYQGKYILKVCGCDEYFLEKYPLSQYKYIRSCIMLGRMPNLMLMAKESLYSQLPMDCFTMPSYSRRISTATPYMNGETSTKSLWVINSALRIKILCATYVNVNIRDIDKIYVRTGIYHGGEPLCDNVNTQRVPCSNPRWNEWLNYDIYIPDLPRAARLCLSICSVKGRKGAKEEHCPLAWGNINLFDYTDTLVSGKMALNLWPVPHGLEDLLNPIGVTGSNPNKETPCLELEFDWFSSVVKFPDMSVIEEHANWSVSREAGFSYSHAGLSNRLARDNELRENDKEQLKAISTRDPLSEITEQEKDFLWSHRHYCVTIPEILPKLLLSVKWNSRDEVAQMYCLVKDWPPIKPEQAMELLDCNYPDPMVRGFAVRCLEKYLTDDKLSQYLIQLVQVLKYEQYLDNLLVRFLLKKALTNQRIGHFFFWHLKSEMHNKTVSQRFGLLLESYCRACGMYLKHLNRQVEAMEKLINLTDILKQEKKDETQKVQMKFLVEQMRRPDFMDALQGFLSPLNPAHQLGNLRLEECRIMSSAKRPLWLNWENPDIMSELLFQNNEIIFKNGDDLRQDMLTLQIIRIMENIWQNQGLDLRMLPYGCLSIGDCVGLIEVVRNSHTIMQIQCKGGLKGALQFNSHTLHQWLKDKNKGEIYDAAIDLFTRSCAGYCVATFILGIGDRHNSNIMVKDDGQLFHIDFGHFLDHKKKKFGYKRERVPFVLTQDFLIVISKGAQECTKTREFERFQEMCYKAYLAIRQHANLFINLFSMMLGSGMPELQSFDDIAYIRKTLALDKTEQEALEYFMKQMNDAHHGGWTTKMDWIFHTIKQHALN

IC50	Structure (SMILES)
< 50 nM	CN1CCN(C(=O)c2ccc(NC(=O)Nc3ccc(-c4nc(N5CCOCC5)c5ccc(-c6ccco6)cc5n4)cc3)cc2)CC1
< 50 nM	Cc1nn(C)c(C)c1-c1ccc2c(N3CCOCC3)nc(-c3ccc(NC(=O)Nc4ccc(C(=O)N(C)C)cc4)cc3F)nc2c1
50 to 200 nM	CN(C)C(=O)c1ccc(NC(=O)Nc2ccc(-c3nc(N4CCOCC4)c4ccc(-c5cccnc5F)cc4n3)cc2)cc1
< 50 nM	CN(C)C(=O)c1ccc(NC(=O)Nc2ccc(-c3nc(N4CCOCC4)c4ccc(-c5cncnc5)cc4n3)cc2)cc1F
< 50 nM	CN(C)C(=O)c1ccc(NC(=O)Nc2ccc(-c3nc(N4CCOCC4)c4ccc(-c5cccc(S(C)(=O)=O)c5)cc4n3)cc2F)cn1
< 50 nM	CN(C)C(=O)c1ccc(NC(=O)Nc2ccc(-c3nc(N4CCOCC4)c4cc(F)c(-c5cccnc5)cc4n3)cc2)cc1
< 50 nM	Cc1ccc(-c2ccc3c(N4CCOCC4)nc(-c4ccc(NC(=O)Nc5ccc(C(=O)N(C)C)cc5)nc4)nc3c2)o1
50 to 200 nM	Cc1ccncc1-c1cnc2c(N3CCOCC3)nc(-c3ccc(NC(=O)Nc4ccc(C(=O)N(C)C)cc4)c(F)c3)nc2c1
< 50 nM	Cc1ncccc1-c1ccc2c(N3CCOCC3)nc(-c3ccc(NC(=O)Nc4ccc(C(=O)N(C)C)cc4F)cc3)nc2c1
< 50 nM	CN(C)C(=O)c1ccc(NC(=O)Nc2ccc(-c3nc(N4CCOCC4)c4ccc(-c5cccc(NS(C)(=O)=O)c5)cc4n3)cc2)cc1
< 50 nM	Cn1cc(-c2cnc3c(N4CCOCC4)nc(-c4ccc(NC(=O)Nc5ccc(C(N)=O)cc5)cc4)nc3c2)cn1
< 50 nM	Cc1ccc(-c2ccc3c(N4CCOCC4)nc(-c4ccc(NC(=O)Nc5ccc(C(=O)N(C)CCN(C)C)cc5)cc4)nc3c2)o1
< 50 nM	CN(C)C(=O)c1ccc(NC(=O)Nc2ccc(-c3nc(N4CCOCC4)c4ncc(-c5cnn(C)c5)cc4n3)cn2)cc1
50 to 200 nM	CN(C)Cc1ccc(-c2ccc3c(N4CCOCC4)nc(-c4ccc(NC(=O)Nc5ccc(C(=O)N(C)C)cc5)cc4)nc3c2)o1
50 to 200 nM	CN(C)C(=O)c1ccc(NC(=O)Nc2ccc(-c3nc(N4CCOCC4)c4ccc(-c5ccoc5)cc4n3)cc2)cc1
< 50 nM	CN(C)C(=O)c1ccc(NC(=O)Nc2ccc(-c3nc(N4CCOCC4)c4ncc(-c5cccnc5F)cc4n3)cc2)c(F)c1
50 to 200 nM	CN(C)C(=O)c1ccc(NC(=O)Nc2ccc(-c3nc(N4CCOCC4)c4ccc(-c5ccc(C(C)(C)O)o5)cc4n3)c(F)c2)cc1
< 50 nM	CN(C)C(=O)c1ccc(NC(=O)Nc2ccc(-c3nc(N4CCOCC4)c4ncc(-c5cccnc5)cc4n3)cc2F)cc1
50 to 200 nM	COc1ncccc1-c1ccc2c(N3CCOCC3)nc(-c3ccc(NC(=O)Nc4ccc(C(=O)N(C)C)cc4)cc3F)nc2c1
< 50 nM	Cc1noc(C)c1-c1ccc2c(N3CCOCC3)nc(-c3ccc(NC(=O)Nc4ccc(C(=O)N(C)C)cc4)c(F)c3)nc2c1
< 50 nM	CN(C)C(=O)c1ccc(NC(=O)Nc2ccc(-c3nc(N4CCOCC4)c4ncc(-c5cncnc5)cc4n3)cc2)cc1
< 50 nM	CN(C)C(=O)c1ccc(NC(=O)Nc2ccc(-c3nc(N4CCOCC4)c4ccc(-c5cncnc5)cc4n3)c(F)c2)cc1
< 50 nM	CN(C)[C@@H]1CCN(C(=O)c2ccc(NC(=O)Nc3ccc(-c4nc(N5CCOCC5)c5ccc(-c6cncnc6)cc5n4)cc3)cc2)C1
< 50 nM	CN(C)C(=O)c1ccc(NC(=O)Nc2ccc(-c3nc(N4CCOCC4)c4ccc(-c5cnc6ccccc6c5)cc4n3)cc2)cc1
50 to 200 nM	Cc1noc(C)c1-c1cc2nc(-c3ccc(NC(=O)Nc4ccc(C(=O)N(C)C)cc4)cc3)nc(N3CCOCC3)c2cc1F
< 50 nM	CN(C)C(=O)c1ccc(NC(=O)Nc2ccc(-c3nc(N4CCOCC4)c4ccc(-c5cnc(N(C)C)nc5)cc4n3)c(F)c2)cc1

IC50	Structure (SMILES)
< 50 nM	CN1CCN(C(=O)c2ccc(NC(=O)Nc3ccc(-c4nc(N5CCOCC5)c5ncc(-c6cnn(C)c6)cc5n4)cc3)cc2)CC1
< 50 nM	CN(C)C(=O)c1ccc(NC(=O)Nc2ccc(-c3nc(N4CCOCC4)c4ccc(-c5cnn(C)c5)cc4n3)cc2)cc1
< 50 nM	CN(C)C(=O)c1ccc(NC(=O)Nc2ccc(-c3nc(N4CCOCC4)c4ccc(-c5ccc(CO)o5)cc4n3)c(F)c2)cc1
< 50 nM	CN(C)C(=O)c1ccc(NC(=O)Nc2ccc(-c3nc(N4CCOCC4)c4ncc(-c5cnn(C)c5)cc4n3)cc2)c(F)c1
< 50 nM	CN(C)C(=O)c1ccc(NC(=O)Nc2ccc(-c3nc(N4CCOCC4)c4cc(F)c(-c5cccnc5F)cc4n3)cn2)cc1
< 50 nM	Cc1ccc(-c2ccc3c(N4CCOCC4)nc(-c4ccc(NC(=O)Nc5ccc(C(=O)N(C)C)nc5)nc4)nc3c2)o1
50 to 200 nM	CN(C)C(=O)c1ccc(NC(=O)Nc2ccc(-c3nc(N4CCOCC4)c4cccc(-c5cccc(O)c5)c4n3)cc2)cc1
< 50 nM	CC(O)c1ccc(-c2ccc3c(N4CCOCC4)nc(-c4ccc(NC(=O)Nc5ccc(C(=O)N(C)C)cc5)cc4)nc3c2)o1 (configuration not stated)
< 50 nM	CNC(=O)c1ccc(NC(=O)Nc2ccc(-c3nc(N4CCOCC4)c4ncc(-c5cnn(C)c5)cc4n3)cc2)cc1
50 to 200 nM	COc1ccc(-c2ccc3c(N4CCOCC4)nc(-c4ccc(NC(=O)Nc5ccc(C(=O)N(C)C)cc5)c(F)c4)nc3c2)cn1
< 50 nM	Cc1ncccc1-c1ccc2c(N3CCOCC3)nc(-c3ccc(NC(=O)Nc4ccc(C(=O)N(C)C)cc4)cc3F)nc2c1
50 to 200 nM	CN1CCN(C(=O)c2ccc(NC(=O)Nc3ccc(-c4nc(N5CCOCC5)c5ccc(-c6cnn(C)c6)cc5n4)cc3)cc2)CC1
< 50 nM	Cc1ccncc1-c1ccc2c(N3CCOCC3)nc(-c3ccc(NC(=O)Nc4ccc(C(=O)N5CCC(N(C)C)CC5)cc4)cc3)nc2c1
< 50 nM	CN(C)C(=O)c1ccc(NC(=O)Nc2ccc(-c3nc(N4CCOCC4)c4ccc(-c5ccc(N)nc5)cc4n3)cc2)cc1
< 50 nM	CN(C)C(=O)c1ccc(NC(=O)Nc2ccc(-c3nc(N4CCOCC4)c4ncc(-c5cnc(N)nc5)cc4n3)cc2F)cc1
< 50 nM	N[C@H]1CCN(C(=O)c2ccc(NC(=O)Nc3ccc(-c4nc(N5CCOCC5)c5ccc(-c6ccco6)cc5n4)cc3)cc2)C1
< 50 nM	CN(C)C(=O)c1ccc(NC(=O)Nc2ccc(-c3nc(N4CCOCC4)c4ccc(-c5ccc(CO)o5)cc4n3)cc2F)cc1
< 50 nM	CN(C)C(=O)c1ccc(NC(=O)Nc2ccc(-c3nc(N4CCOCC4)c4ccc(-c5cccnc5F)cc4n3)cc2F)cc1
50 to 200 nM	CN(C)C(=O)c1ccc(NC(=O)Nc2ccc(-c3nc(N4CCOCC4)c4ccc(-c5cncnc5)cc4n3)cc2F)cc1
< 50 nM	CN(C)C(=O)c1ccc(NC(=O)Nc2ccc(-c3nc(N4CCOCC4)c4ccc(-c5cccc(S(C)(=O)=O)c5)cc4n3)cc2F)cc1
< 50 nM	CN(C)C(=O)c1ccc(NC(=O)Nc2ccc(-c3nc(N4CCOCC4)c4ccc(-c5cccnc5)cc4n3)cc2)cc1
< 50 nM	CN(C)C(=O)c1ccc(NC(=O)Nc2ccc(-c3nc(N4CCOCC4)c4ccc(-c5ccncc5F)cc4n3)cc2)cc1
< 50 nM	CN(C)C1CCN(C(=O)c2ccc(NC(=O)Nc3ccc(-c4nc(N5CCOCC5)c5ccc(C(C)(C)O)cc5n4)cc3)cc2)CC1
< 50 nM	COc1ncc(-c2cnc3c(N4CCOCC4)nc(-c4ccc(NC(=O)Nc5ccc(C(=O)N(C)C)cc5)cc4F)nc3c2)cn1
< 50 nM	COc1ncc(-c2cnc3c(N4CCOCC4)nc(-c4ccc(NC(=O)Nc5ccc(C(=O)N(C)C)cc5)cc4)nc3c2)cn1
< 50 nM	COc1ccc(-c2ccc3c(N4CCOCC4)nc(-c4ccc(NC(=O)Nc5ccc(C(=O)N(C)C)cc5)cc4)nc3c2)cn1
